Here are results for 4 compounds from patent publication US20240043373A1, “COMPOSITIONS AND METHODS FOR TREATING AMYLOID-RELATED CONDITIONS” (The Regents of the University of California, priority 2020, published 2024).

Entries after “also recorded” stand apart in the source; their conditions may differ.

For assay [1], the system named is sAPPα. Put plainly: sAPPα AlphaLISA in SH-SY5Y cells. The class given is cell-based, human. To be noted: for sAPPα levels after 24 h: SH-SY5Y, after 24 h (FIG. 12B); for sAPPα in SH-SY5Y cells: SH-SY5Y 150 K/well, 1, 5, 10 and 50 μM, 24 hours, AlphaLISA. Here is the method: Media (20 μL) was collected every 2 h for 24 h (plate was shaken prior to media collection to disburse sAPPα) from each treatment group.
For orientation: Alpha assays give light when donor and acceptor beads are brought close together.

The subject of assay [2] is p-GSK3β (Ser 9). The assay is described as follows: phospho GSK3β / total GSK3β western blot in SH-SY5Y cells. Format: cell-based, human. To be noted: SH-SY5Y 100 k/well, 5 uM. From the text: FIG. 14B is a graph showing each blot normalized to actin levels.
FIG. 16C is a graph decpiting the normalized to actin levels and the ratio of (phosphor-GSK3β/Actin) to (Total-GSK3β/Actin) from the Western blots in FIGS. 16A & B, calculated by densitometry.

The test system of assay [3] is sAPPα. The assay is described as follows: Primary HTS: sAPPα AlphaLISA in CHO-7W cells. The class given is cell-based, Chinese Hamster.
Description: A HTS of portions of the UCLA compound library was undertaken. The primary HTS was carried out at the MSSR facility at UCLA using CHO-7W cells. An initial screen of approximately 7000 compounds was performed using the NIH and NPW libraries, 3 plates from the targeted libraries (TAR), full LOPAC and NKIL libraries, and four plates from the Emerald/Synergy (ES) library. CHO-7W cells (5 K/well) were treated with 5 μM compounds for 48 h followed by collection of media and determination of sAPPα using an AlphaLISA.
Assay [4] deals with BAP31. The assay is described as follows: Quantitative global proteomics (LC-MS/MS) of treated SH-SY5Y cells. The conditions noted are these: treated vs vehicle (DMSO) SH-SY5Y cells. Format: cell-based, human.
Description: Tryptic peptides were subsequently labeled with isobaric tandem mass tags (ThermoFischer Scientific) to provide relative quantitation between samples, and then fractionated using high pH reverse-phase chromatography for increased proteome coverage. The multiplexed samples were analyzed by liquid chromatography tandem mass spectrometry (LC-MS/MS).
In assay [5] the test system is BAP31. The assay is described as follows: BAP31 immunoblot (WB) in SH-SY5Y cells. The class given is cell-based, human. The conditions noted are these: SH-SY5Y after treatment. Background: Immunoblotting shows a protein as a band on a membrane.
The test system of a further assay is RTN3 monomer. The assay is described as follows: RTN3 monomer immunoblot (WB) in SH-SY5Y cells.
For assay [6], the system named is p-GSK3β (Ser 9). To be noted: Deng et al., 2015; used at 25 nM as positive control; cited from earlier work.
In another assay the test system is RTN3. Put plainly: Oral treatment of ApoE4:5xFAD mice, brain RTN3. The class given is in vivo. To be noted: E4:FAD mice, orally 4 mg/kg for 18 days.
Assay [7] has as its system sAPPα. The assay is described as follows: Oral treatment of ApoE4:5xFAD mice, brain sAPPα. To be noted: E4:FAD mice, orally 4 mg/kg for 18 days. The class given is in vivo.
The subject of the next assay is p-GSK3β. Put plainly: Oral treatment of ApoE4:5xFAD mice, brain p-GSK3β. Format: in vivo. To be noted: E4:FAD mice, orally 4 mg/kg for 18 days.

Regarding `COc1cc(C(=O)OCCCN2CCCN(CCCOC(=O)c3cc(OC)c(OC)c(OC)c3)CC2)cc(OC)c1OC` (racemic) [DDL-402, Dilazep], the “sAPPα levels after 24 h” value in the assay with sAPPα [1] is listed as “significantly increased”. The “ratio (phospho-GSK3β/Actin) to (Total-GSK3β/Actin)” value in the assay on p-GSK3β (Ser 9) [2] (18 h) is reported as “trend to increase in p-GSK3β”.
In the case of `CC(Cc1ccccc1)(NC(=O)CN)c1ccccc1` (centres unmarked) [DDL-401, Remacemide], the “enhancement of sAPPα in CHO-7W cells” value with sAPPα [3] (CHO cells stably expressing human APP, initial HTS) is reported as “enhancer of sAPPα”. Also, the “percent increase in sAPPα levels normalized to control in HTS” value in the assay on sAPPα [3] (CHO-7W cells 5 K/well, 5 μM compound, 48 h, AlphaLISA) is more than 25%. Moreover, in the assay with sAPPα [1], the “sAPPα in SH-SY5Y cells” value was “significantly (p>0.01) increased; also recorded: increased sAPPα” and the “sAPPα levels after 24 h” value is “significantly increased”. In addition, in the assay on sAPPα [1] (listed as Remacemide), the “sAPPα in SH-SY5Y cells” value was “sAPPα increase”. The “time course of sAPPα in media” value with sAPPα [1] (SH-SY5Y 400,000/well, 5 μM, media collected every 2 h for 24 h, vs DMSO) is listed as “time dependent increase in sAPPα”. Further, the “levels of tryptic peptides corresponding to BAP31 (MS/MS)” value in the assay with BAP31 [4] was “increase in the levels of tryptic peptides”. Further, in the assay on BAP31 [5], the “BAP31 by WB” value is “no significant increase”. Besides, the “concentration giving a modest increase in RTN3 monomer levels” value with RTN3 monomer (SH-SY5Y, WB) was not below 10 µM.
For “sAPPα: recombinant sAPPα (25 nM) used as a positive control for GSK3β phosphorylation”, the “phosphorylation of GSK3β (positive control, literature)” value with p-GSK3β (Ser 9) [6] is listed as “increase the phosphorylation of GSK3β”.
Take `CN1[C@@H]2CC[C@H]1C[C@@H](OC(=O)c1c[nH]c3ccccc13)C2` [F03, Tropisetron]: in the assay with p-GSK3β (Ser 9) [2] (12 h or 18 h), the “phosphorylation of GSK3β” value is listed as “increases phosphorylation of GSK3β”. The “RTN3 levels in the brain” value with RTN3 was “slightly enhanced”. The sAPPα in brain result in the assay with sAPPα [7] is recorded as “slight increase”. Further, the p-GSK3β in brain entry with p-GSK3β was “bigger increase”. The “level of RTN3 monomer (~25 kD)” value with RTN3 monomer (SH-SY5Y 100 k/well, 5 uM, 12 h, vs DMSO or untreated) is “trended to increase”.
